Reference: paper PMC8152814, “The modulatory role of sulfated and non-sulfated small molecule heparan sulfate-glycomimetics in endothelial dysfunction: absolute structural clarification, molecular docking and simulated dynamics, SAR analyses and ADMET studies” (RSC Medicinal Chemistry, 2021)

Experiments:
[1] = biological target: T1, hERG (Homo sapiens, UniProt Q12809); assay: hERG automated patch clamp (IonWorks, CHO-hERG cells); assay type: cell-based; details: CHO cells stably transfected with hERG, top concentration 25 µM
T1 construct: host or cells: CHO cells stably transfected with hERG
T1 sequence (Q12809 whole entry): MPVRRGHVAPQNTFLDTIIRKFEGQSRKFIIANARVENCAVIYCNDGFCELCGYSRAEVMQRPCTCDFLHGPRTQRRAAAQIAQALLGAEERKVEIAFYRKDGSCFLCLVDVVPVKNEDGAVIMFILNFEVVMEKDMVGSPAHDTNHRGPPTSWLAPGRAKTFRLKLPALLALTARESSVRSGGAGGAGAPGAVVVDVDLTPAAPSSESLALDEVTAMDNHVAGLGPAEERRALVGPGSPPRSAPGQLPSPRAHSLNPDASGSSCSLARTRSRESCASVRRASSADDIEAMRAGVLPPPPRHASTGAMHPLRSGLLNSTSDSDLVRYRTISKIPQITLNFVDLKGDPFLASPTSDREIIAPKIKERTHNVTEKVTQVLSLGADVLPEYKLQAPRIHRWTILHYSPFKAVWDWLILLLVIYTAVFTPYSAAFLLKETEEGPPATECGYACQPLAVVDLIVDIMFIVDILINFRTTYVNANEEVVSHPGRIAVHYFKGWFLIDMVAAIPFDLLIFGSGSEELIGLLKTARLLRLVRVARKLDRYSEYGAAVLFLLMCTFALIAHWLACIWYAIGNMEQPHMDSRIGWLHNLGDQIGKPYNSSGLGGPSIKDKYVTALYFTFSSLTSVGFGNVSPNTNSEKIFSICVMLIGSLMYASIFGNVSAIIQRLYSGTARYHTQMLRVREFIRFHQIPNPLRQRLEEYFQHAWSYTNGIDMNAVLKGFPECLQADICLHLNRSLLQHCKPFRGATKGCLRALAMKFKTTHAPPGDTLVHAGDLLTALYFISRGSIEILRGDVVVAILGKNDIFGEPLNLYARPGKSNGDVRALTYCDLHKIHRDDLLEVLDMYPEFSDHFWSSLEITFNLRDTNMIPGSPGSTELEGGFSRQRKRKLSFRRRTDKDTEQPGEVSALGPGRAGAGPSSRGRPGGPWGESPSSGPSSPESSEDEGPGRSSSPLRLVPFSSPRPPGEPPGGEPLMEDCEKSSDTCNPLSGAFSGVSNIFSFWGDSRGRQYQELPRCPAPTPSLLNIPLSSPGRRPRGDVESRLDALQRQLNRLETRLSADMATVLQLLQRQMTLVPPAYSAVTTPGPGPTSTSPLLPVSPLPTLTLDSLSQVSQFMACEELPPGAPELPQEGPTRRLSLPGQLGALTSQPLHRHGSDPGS
Method: Physicochemical and ADMET properties of representative glycomimetics. […] The final incubation volume is 50 µL. […] Two control compounds are included with each species. All incubations are performed singularly for each test compound. […] The control (minus NADPH) is incubated for 45 min. […] The cells are then positioned over a small hole at the bottom of each well by applying a vacuum beneath the plate to form an electrical seal. The vacuum is applied through a single compartment common to all wells which is filled with intracellular solution (buffered to pH 7.2 with HEPES). The resistance of each seal is measured via a common ground-electrode in the intracellular compartment and individual electrodes placed into each of the upper wells. Electrical access to the cell is then achieved by circulating a perforating agent, amphotericin B, underneath the PatchPlateTM. The pre-compound hERG current is then measured. An electrode is positioned in the extracellular compartment and a holding potential of -80 mV applied for 15 s. The hERG channels are then activated by applying a depolarising step to +40 mV for 5 s and then clamped at -50 mV for 4 s to elicit the hERG tail current, before returning to -80 mV for 0.3 s. […]

[2] = test system: Caco-2 cells; assay: Caco-2 permeability (bi-directional); assay type: in vitro ADME
Method: Physicochemical and ADMET properties of representative glycomimetics. […]
ymax = mean vehicle control response
Caco-2 Permeability (A-B or Bi-directional)
Caco-2 cells (ATCC, Virginia, USA) are used between passage numbers 40-60. Cells are seeded onto Millipore Multiscreen Transwell plates at 1 x 10^5 cells/cm2. The cells are cultured in DMEM and media is changed every two or three days. On day 20 the permeability study is performed. Cell culture and assay incubations are carried out at 37 °C in an atmosphere of 5 % CO2 with a relative humidity of 95%. On the day of the assay, the monolayers are prepared by rinsing both apical and basolateral surfaces twice with Hanks Balanced Salt Solution (HBSS) at the desired pH warmed to 37 °C. Cells are then incubated with HBSS at the desired pH in both apical and basolateral compartments for 40 min to stabilise physiological […]
The dosing solutions are prepared by diluting test compound with assay buffer to give a final test compound concentration of 10 µM (final DMSO concentration of 1 % v/v). The fluorescent integrity marker lucifer yellow is also included in the dosing solution. Analytical standards are prepared from test compound DMSO dilutions and transferred to buffer, maintaining a 1% v/v DMSO concentration. Typical assay buffer is composed of supplemented HBSS pH 7.4 but a range of other buffers and pH values can be used.
For assessment of A-B permeability, HBSS is removed from the apical compartment and replaced with test compound dosing solution. The apical compartment insert is then placed into a companion plate containing fresh buffer (containing 1 % v/v DMSO). For assessment of B-A permeability, HBSS is removed from the companion plate and replaced with test compound dosing solution. Fresh buffer (containing 1 % v/v DMSO) is added to the apical compartment insert, which is then placed into the companion plate.
At 120 min the apical compartment inserts and the companion plates are separated and apical and basolateral samples diluted for analysis. Test compound permeability is assessed in duplicate. Compounds of known permeability characteristics are run as controls on each assay plate. Test and control compounds are quantified by LC-MS/MS cassette analysis using an 8-point calibration with appropriate dilution of the samples. The starting concentration (C0) is determined from the dosing solution and the experimental recovery calculated from C0 and both apical and basolateral compartment concentrations.
The integrity of the monolayer throughout the experiment is checked by monitoring lucifer yellow permeation using fluorimetric analysis. Lucifer yellow permeation is high if monolayers have been damaged. If a lucifer yellow Papp value is above a pre-defined threshold in one individual test compound well, the compound may be re-tested or an n = 1 result is reported.
If lucifer yellow Papp values are above the threshold in both replicate wells for a test compound, the compound is re-tested. If this re-occurs upon repeat in both wells then toxicity or inherent fluorescence of the test compound is assumed.
The permeability coefficient (Papp) for each compound is calculated from the following […]
Where dQ/dt is the rate of permeation of the drug across the cells, C0 is the donor compartment concentration at time zero and A is the area of the cell monolayer. C0 is obtained from analysis […]
For bi-directional experiments, an efflux ratio (ER) is calculated from mean A-B and B-A data.
Three control compounds are screened alongside the test compounds, atenolol (human absorption 50%), propranolol (human absorption 90%) and talinolol (a substrate for […]

[3] = in vitro; details: mouse, microsomes, pH 7.4
Method: MLM assay (controls: diphenhydramine and diazepam). hERG assay (controls: quinidine and dimethylsulfoxide).
Microsomal Metabolic Stability
Pooled liver microsomes (final protein concentration 0.5 mg/mL), 0.1 M phosphate buffer pH
7.4 and test compound (final substrate concentration 3 µM; final DMSO concentration 0.25 %)
are pre-incubated at 37 °C prior to the addition of NADPH (final concentration 1 mM) to initiate
the reaction. The final incubation volume is 50 µL. A minus cofactor control incubation is
included for each compound tested where 0.1 M phosphate buffer pH 7.4 is added instead of
NADPH (minus NADPH). Two control compounds are included with each species. All incubations are performed singularly for each test compound. Each compound is incubated for 0, 5, 15, 30 and 45 min. The control (minus NADPH) is incubated for 45 min. The reactions
are stopped by transferring 20 µL of incubate to 60 µL methanol at the appropriate time points.
The termination plates are centrifuged at 2,500 rpm for 20 min at 4 °C to precipitate the protein.
Following protein precipitation, the sample supernatants are combined in cassettes of up to 4
compounds, internal standard is added and samples analysed using Cyprotex generic
LC-MS/MS conditions. From a plot of ln peak area ratio (compound peak area /internal
standard peak area) against time, the gradient of the line is determined. Subsequently, half-
life and intrinsic clearance are calculated using the equations below:
Elimination rate constant (k) = (- gradient)
Intrinsic clearance (CLint)(µL/min/mg protein) = where V = Incubation volume (µL)/Microsomal protein (mg)
Relevant control compounds are assessed, ensuring intrinsic clearance values fall within the
specified limits (if available).

With `O=C([O-])c1cc(OC[C@H](COS(=O)(=O)[O-])OS(=O)(=O)[O-])ccc1OCC(COS(=O)(=O)[O-])OS(=O)(=O)[O-].[Na+].[Na+].[Na+].[Na+].[Na+]` (mixture of isomers) [β-5, sodium 5-((R)-2,3-bis(sulfonatooxy)propoxy)-2-(2,3-bis(sulfonatooxy)propoxy)benzoate] the IC50 [1] was > 25 µM, the “Caco-2 cell permeability levels” value [2] was “low or not detected” and the “Caco-2 (A2B Papp)” value ([2]; A2B, 10 µM, 120 min) was “Not detected”. For the same compound, the “Caco-2 (B2A Papp)” value ([2]; 10 µM, 120 min) was “Not detected”.
In the case of `COC(=O)c1cc(OC[C@H](COS(=O)(=O)[O-])OS(=O)(=O)[O-])ccc1OCCCCOS(=O)(=O)[O-].[Na+].[Na+].[Na+]` [Compound R-10, sodium (R)-3-(3-(methoxycarbonyl)-4-(4-(sulfonatooxy)butoxy)phenoxy)propane-1,2-diyl bis(sulfate)], the IC50 at 300 s ([1]; human, pH 7.2) is reported as > 25 µM, the “Caco-2 cell permeability levels” value [2] is reported as “low or not detected” and the “Caco-2 (B2A Papp)” value ([2]; 10 µM, 120 min) is reported as “Not detected”.
Work on `COC(=O)c1cc(OC[C@@H](COS(=O)(=O)[O-])OS(=O)(=O)[O-])ccc1OCCCCOS(=O)(=O)[O-].[Na+].[Na+].[Na+]` [Compound S-10, sodium (S)-3-(3-(methoxycarbonyl)-4-(4-(sulfonatooxy)butoxy)phenoxy)propane-1,2-diyl bis(sulfate)] yielded a half-life at 0.75 h, 3 µM [3] of 69.3 h.
